System: H3K9me3 occupancy in promoter regions
Assay: H3K9me3-ChIP sequencing of striatal tissue of YAC128 mice
Format: in vivo, mouse
Description: ChIP for H3K9me3 binding to DNA was performed using a CHIP assay kit (Santa Cruz, Dallas, TX) as described previously[21]^,[28]. Striatal tissues from WT, vehicle treated YAC128, and APQ-treated YAC128 mice were crossed-linked with 1% formaldehyde for 20 min at room temperature. Lysates were sonicated for 30 s six times using a Bioruptor (Diagenode Inc., Denville, NJ). After centrifugation, the supernatant was diluted in CHIP dilution buffer and incubated overnight at 4 °C with anti-H3K9me3 antibody. Immune complexes were recovered by the addition of 60 µl of salmon sperm DNA/protein A agarose-50% slurry and incubation at 4 °C for 2 h with rotation. Beads were pelleted and washed with low and high salt buffer followed by LiCl buffer (x3). Immune complexes were eluted by incubation with 500 µl of fresh elution buffer (1% SDS, 0.1 M NaHCO3) and 20 µl of 5 M NaCl. DNA was cleaned by the addition of 500 mM EDTA, 1 M Tris, and proteinase K at 66 °C for 4 h. The DNA solution was extracted with a phenol/chloroform/isoamyl alcohol mixture to remove protein contaminants, followed by precipitation with 100% ethanol. After precipitation, the pellet was washed with 70% ethanol and dissolved in 20 µl DW.
The Model-based Analysis of ChIP-Seq algorithm (MACS; v. 1.4.2) was used to identify regions of H3K9me3 enrichment with the default parameters. The peaks that pass a Poisson p values threshold of 0.1 were used for further analyses[28]^,[42]. In order to obtain reliable regions of enrichment, the regions detected in more than two samples were selected and aligned to define the consensus regions using DiffBind R package (v. 2.4.8)[43]. The reads in the consensus regions were counted and DESeq2 was applied to identify DMRs[44]. The DMRs were defined as p values of ≤.05 and only DMRs in promoter region (≤3 K from transcription start site) were selected.
Among the read peaks, a total of H3K9me3-enriched 71735 sites were commonly detected using MACS in WT, vehicle-treated YAC128, and APQ-treated YAC128 mice (using DiffBind R package). The reads were re-counted in the 71,735 sites (using DESeq2) and the H3K9me3-enriched sites in promoter region (≤3 K), with p values ≤.01 were selected. Then the H3K9me3-enriched sites with 1.5-fold higher in vehicle-treated YAC128 compared to WT and 1.5-fold lower in vehicle-treated YAC128 compared to APQ-treated YAC128 were finally selected.

C=CCOc1cccc2nc(N3CCCC3)ccc12 [APQ, 5-allyloxy-2-(pyrrolidin-1-yl)quinoline]
number of targets with 1.5-fold decrease of H3K9me3 occupancy (APQ-treated vs vehicle-treated YAC128 mice): 7060
H3K9me3 occupancy in the promoter region (–1 k to –3 kb) (APQ-treated vs vehicle-treated YAC128 mice, pie graph analysis): reduced
Fold(YACEi/YAC) H3K9me3 ChIP occupancy (Gripap1, Promoter (1-2kb), chrX_7787762_7788457, APQ-treated YAC vs YAC mice striatum): -2.38
Fold(YACEi/YAC) (H3K9me3 ChIP peak chr1_71652484_71652752, Apol7d, Promoter (<=1kb)): -3.31
Fold(YACEi/YAC) (H3K9me3 ChIP peak chr1_131908530_131908816, Nucks1, Promoter (1-2kb)): -4.01
Fold(YACEi/YAC) (H3K9me3 ChIP peak chr1_153487828_153488249, Dhx9, Promoter (<=1kb)): -2.43
Fold(YACEi/YAC) (H3K9me3 ChIP peak chr2_5015774_5016013, Mcm10, Promoter (2-3kb)): -3.52
Fold(YACEi/YAC) (H3K9me3 ChIP peak chr3_35666243_35666969, Gm6639, Promoter (<=1kb)): -3.37
Fold(YACEi/YAC) (H3K9me3 ChIP peak chr3_38487666_38488045, Ankrd50, Promoter (2-3kb)): -2.49
Fold(YACEi/YAC) (H3K9me3 ChIP peak chr3_81977204_81977533, Tdo2, Promoter (1-2kb)): -3.71
Fold(YACEi/YAC) (H3K9me3 ChIP peak chr3_92487863_92488097, Sprr1a, Promoter (1-2kb)): -3.63
Fold(YACEi/YAC) (H3K9me3 ChIP peak chr3_101112649_101113010, Ptgfrn, Promoter (2-3kb)): -3.89
Fold(YACEi/YAC) (H3K9me3 ChIP peak chr4_3653408_3653656, 2210414B05Rik, Promoter (2-3kb)): -3.07
Fold(YACEi/YAC) (H3K9me3 ChIP peak chr4_55418287_55418885, Gm12505, Promoter (<=1kb)): -2.83
Fold(YACEi/YAC) (H3K9me3 ChIP peak chr4_73631010_73633171, Gm11236, Promoter (2-3kb)): -3.46
Fold(YACEi/YAC) (H3K9me3 ChIP peak chr4_96141001_96141325, Cyp2j12, Promoter (<=1kb)): -3.49
Fold(YACEi/YAC) (H3K9me3 ChIP peak chr5_147954155_147954429, Mtus2, Promoter (2-3kb)): -3.24
Fold(YACEi/YAC) (H3K9me3 ChIP peak chr6_8194240_8194734, Col28a1, Promoter (1-2kb)): -2.03
Fold(YACEi/YAC) (H3K9me3 ChIP peak chr6_40902902_40903167, Prss58, Promoter (2-3kb)): -3.27
Fold(YACEi/YAC) (H3K9me3 ChIP peak chr6_52209895_52210445, Hoxa6, Promoter (1-2kb)): -2.02
Fold(YACEi/YAC) (H3K9me3 ChIP peak chr6_57158878_57159171, Vmn1r12, Promoter (<=1kb)): -3.18
Fold(YACEi/YAC) (H3K9me3 ChIP peak chr6_82941890_82942092, Sema4f, Promoter (2-3kb)): -3.56
Fold(YACEi/YAC) (H3K9me3 ChIP peak chr6_88462374_88462646, Ruvbl1, Promoter (2-3kb)): -3.04
Fold(YACEi/YAC) (H3K9me3 ChIP peak chr6_116583898_116584203, Olfr215, Promoter (<=1kb)): -2.33
Fold(YACEi/YAC) (H3K9me3 ChIP peak chr7_20869153_20870151, Vmn1r116, Promoter (2-3kb)): -3.02
Fold(YACEi/YAC) (H3K9me3 ChIP peak chr7_28539372_28539811, Sycn, Promoter (1-2kb)): -2.21
Fold(YACEi/YAC) (H3K9me3 ChIP peak chr7_30914737_30915034, Mag, Promoter (<=1kb)): -2.46
Fold(YACEi/YAC) (H3K9me3 ChIP peak chr7_106081077_106081480, Gm8979, Promoter (1-2kb)): -3.34
Fold(YACEi/YAC) (H3K9me3 ChIP peak chr7_108053741_108053948, Olfr479, Promoter (1-2kb)): -2.28
Fold(YACEi/YAC) (H3K9me3 ChIP peak chr7_140154755_140155139, Sprn, Promoter (<=1kb)): -2.42
Fold(YACEi/YAC) (H3K9me3 ChIP peak chr8_67493810_67494076, Nat2, Promoter (<=1kb)): -2.63
Fold(YACEi/YAC) (H3K9me3 ChIP peak chr9_39238856_39239153, Olfr1537, Promoter (<=1kb)): -2.72
Fold(YACEi/YAC) (H3K9me3 ChIP peak chr10_75351156_75351507, Gm5779, Promoter (<=1kb)): -3.41
Fold(YACEi/YAC) (H3K9me3 ChIP peak chr10_78963256_78963630, Olfr1353, Promoter (<=1kb)): -2.79
Fold(YACEi/YAC) (H3K9me3 ChIP peak chr10_85919134_85919418, Prdm4, Promoter (1-2kb)): -2.28
Fold(YACEi/YAC) (H3K9me3 ChIP peak chr10_130212472_130212863, Olfr827, Promoter (1-2kb)): -3.69
Fold(YACEi/YAC) (H3K9me3 ChIP peak chr11_6231887_6232152, Npc1l1, Promoter (1-2kb)): -3.31
Fold(YACEi/YAC) (H3K9me3 ChIP peak chr11_70351943_70352224, Alox15, Promoter (<=1kb)): -2.33
Fold(YACEi/YAC) (H3K9me3 ChIP peak chr14_7570803_7571731, Gm3558, Promoter (2-3kb)): -3.02
Fold(YACEi/YAC) (H3K9me3 ChIP peak chr14_50785599_50785931, Ttc5, Promoter (<=1kb)): -3.3
Fold(YACEi/YAC) (H3K9me3 ChIP peak chr14_51147689_51148262, Rnase1, Promoter (<=1kb)): -2.5
Fold(YACEi/YAC) (H3K9me3 ChIP peak chr14_67860151_67860425, Mir6539, Promoter (<=1kb)): -2.31
Fold(YACEi/YAC) (H3K9me3 ChIP peak chr14_74972279_74972456, Gm4278, Promoter (2-3kb)): -3.57
Fold(YACEi/YAC) (H3K9me3 ChIP peak chr16_17917614_17917958, Gsc2, Promoter (2-3kb)): -3.59
Fold(YACEi/YAC) (H3K9me3 ChIP peak chr17_18913933_18914613, Vmn2r97, Promoter (<=1kb)): -3.35
Fold(YACEi/YAC) (H3K9me3 ChIP peak chr17_33553505_33553673, Myo1f, Promoter (2-3kb)): -3.41
Fold(YACEi/YAC) (H3K9me3 ChIP peak chr17_37114518_37114958, Olfr92, Promoter (2-3kb)): -2.4
Fold(YACEi/YAC) (H3K9me3 ChIP peak chr17_37485182_37485483, H2-M2, Promoter (1-2kb)): -3.71
Fold(YACEi/YAC) (H3K9me3 ChIP peak chr17_47927455_47927829, Foxp4, Promoter (2-3kb)): -2.83
Fold(YACEi/YAC) (H3K9me3 ChIP peak chr19_24902268_24902717, Foxd4, Promoter (<=1kb)): -2.16
Fold(YACEi/YAC) (H3K9me3 ChIP peak chrX_5469564_5470151, Mycs, Promoter (<=1kb)): -2.41
Fold(YACEi/YAC) (H3K9me3 ChIP peak chrX_6399655_6400248, Shroom4, Promoter (<=1kb)): -2.29
Fold(YACEi/YAC) (H3K9me3 ChIP peak chrX_7571434_7571820, Flicr, Promoter (1-2kb)): -4.01
Fold(YACEi/YAC) (H3K9me3 ChIP peak chrX_10118097_10118554, Srpx, Promoter (<=1kb)): -2.46
Fold(YACEi/YAC) (H3K9me3 ChIP peak chrX_10714202_10714657, Mid1ip1, Promoter (2-3kb)): -2.68

From article PMC8008885 (Journal of Enzyme Inhibition and Medicinal Chemistry, 2021)
